For data set [1] the following is noted: room temperature.
A short description of data set [2]: Dog PK study: zoledronic acid in serum after IV or oral capsule dosing, enteric or non-enteric coated, with or without excess coformer (LC/MS/MS). It counts as in vivo, Beagle dogs. To be noted: beagle, po, 56 mg, Leg 7, 56.0 mg, enteric coated capsule, PO, read-out: Average serum concentration of 5 dogs. An excerpt: This can be attributed to the fact that both animals have historically been used in the safety evaluation and PK screening studies and are recommended by appropriate regulatory agencies. […] Additional tests included ID administration in rats and administration of enteric coated capsules in dogs.
USA. Some animals have surgical catheters (jugular vein and intraduodenum) were implanted to the animals prior to the studies. Beagle dogs from Marshall Farms, N.Y., USA, weighing from (9-12 kg) were used in the studies presented herein. Surgical catheters (jugular vein) were implanted prior to the studies.
The dose volume of each dog was adjusted based upon the average weight of the dog. • ii. […]
Blood samples were placed without the use of an anticoagulant and allowed to sit at room temperature for approximately 30 minutes. Samples were then centrifuged at a temperature of 4° C., at a speed of 13,000 rpm, for 5 minutes. Serum was collected and split into two aliquots and stored frozen (−80° C.) until analysis.
In this study, capsules of particulate materials (zoledronic:DL-lysine:water complex and excess pure DL-lysine).

As for `O.O=P(O)(O)C(O)(Cn1ccnc1)P(=O)(O)O` [ZA monohydrate], the “Aqueous solubility, Conc. mg/mL” value in data set [1] was determined as 1.57 mg/mL.
On the same count and under the same terms, the value for `NCCCCC(N)C(=O)O.O.O.O=P(O)(O)C(O)(Cn1ccnc1)P(=O)(O)O` [ZA: DL-Lysine dihydrate] was 6.85 mg/mL.
Same read-out and setting: under `NCCCCC(N)C(=O)O.O.O=P(O)(O)C(O)(Cn1ccnc1)P(=O)(O)O` [ZA: DL-Lysine monohydrate] stands 13.9 mg/mL.
Same read-out and setting: under `NCCCC[C@H](N)C(=O)O.O.O.O=P(O)(O)C(O)(Cn1ccnc1)P(=O)(O)O` [ZA: L-Lysine dihydrate] stands 8.22 mg/mL.
Regarding `O=P(O)(O)C(O)(Cn1ccnc1)P(=O)(O)O` [Zoledronic acid monohydrate], the concentration at 0 h in data set [2] (0 h) turned out to be 0 ng/mL. In data set [2] (10 min), the concentration at 10 min amounted to 0 ng/mL. Further, the concentration at 0.25 h in data set [2] (0.25 h) is 0 ng/mL. In data set [2] (0.5 h), the concentration at 0.5 h was determined as 0 ng/mL. The concentration at 0.75 h in data set [2] (0.75 h) was found to be 0 ng/mL. In data set [2] (1 h), the concentration at 1 h was determined as 9.84 ng/mL. Further, the concentration at 1.5 h in data set [2] (1.5 h) turned out to be 86.1 ng/mL. Moreover, in data set [2] (2 h), the concentration at 2 h came to 109 ng/mL. The concentration at 4 h in data set [2] (4 h) was determined as 108 ng/mL. Also, the concentration at 6 h in data set [2] (6 h) amounted to 14.2 ng/mL. The concentration at 8 h in data set [2] (8 h) was 4.57 ng/mL. Besides, the concentration at 24 h in data set [2] (24 h) worked out at 0.5 ng/mL.
